ChEMBL document CHEMBL3390836, “Mannich- and LedererManasse-based analogues of the natural product S-(+)-curcuphenol as cancer proliferation and migration inhibitors” (Medchemcomm, 2012)

How the values were obtained:
MDA-MB-468 = assay: Cytotoxicity against human MDA-MB-468 cells assessed as cell growth at 10 uM after 48 hrs by SRB assay relative to control; type: functional; settings: MDA-MB-468, 48 h, read-out: Activity
BT-549 = assay: Cytotoxicity against human BT549 cells assessed as cell growth at 10 uM after 48 hrs by SRB assay relative to control; type: functional; settings: BT-549, 48 h, read-out: Activity
MDA-MB-231 [1] = assay: Cytotoxicity against human MDA-MB-231 cells assessed as cell growth at 10 uM after 48 hrs by SRB assay relative to control; type: functional; settings: MDA-MB-231, 48 h, read-out: Activity
MCF7 = assay: Cytotoxicity against human MCF7 cells assessed as cell growth at 10 uM after 48 hrs by SRB assay relative to control; type: functional; settings: MCF7, 48 h, read-out: Activity
[2] = Cytotoxicity against human UO31 cells assessed as cell growth at 10 uM after 48 hrs by SRB assay relative to control; type: functional; settings: UO-31, 48 h, read-out: Activity
CAKI-1 = assay: Cytotoxicity against human Caki1 cells assessed as cell growth at 10 uM after 48 hrs by SRB assay relative to control; type: functional; settings: CAKI-1, 48 h, read-out: Activity
SR = assay: Cytotoxicity against human SR cells assessed as cell growth at 10 uM after 48 hrs by SRB assay relative to control; type: functional; settings: read-out: Activity
DU-145 = assay: Cytotoxicity against human DU145 cells assessed as cell growth at 10 uM after 48 hrs by SRB assay relative to control; type: functional; settings: DU-145, 48 h, read-out: Activity
SF-268 = assay: Cytotoxicity against human SF268 cells assessed as cell growth at 10 uM after 48 hrs by SRB assay relative to control; type: functional; settings: SF-268, 48 h, read-out: Activity
[3] = Cytotoxicity against human OVCAR4 cells assessed as cell growth at 10 uM after 48 hrs by SRB assay relative to control; type: functional; settings: OVCAR-4, 48 h, read-out: Activity
[4] = Cytotoxicity against human UACC62 cells assessed as cell growth at 10 uM after 48 hrs by SRB assay relative to control; type: functional; settings: UACC-62, 48 h, read-out: Activity
SK-MEL-28 = assay: Cytotoxicity against human SK-MEL-28 cells assessed as cell growth at 10 uM after 48 hrs by SRB assay relative to control; type: functional; settings: SK-MEL-28, 48 h, read-out: Activity
MDA-MB-435 = assay: Cytotoxicity against human MDA-MB-435 cells assessed as cell growth at 10 uM after 48 hrs by SRB assay relative to control; type: functional; settings: MDA-MB-435, 48 h, read-out: Activity
M14 = assay: Cytotoxicity against human M14 cells assessed as cell growth at 10 uM after 48 hrs by SRB assay relative to control; type: functional; settings: M14, 48 h, read-out: Activity
Malme-3M = assay: Cytotoxicity against human MALME-3M cells assessed as cell growth at 10 uM after 48 hrs by SRB assay relative to control; type: functional; settings: read-out: Activity
LOX IMVI = assay: Cytotoxicity against human LOXIMVI cells assessed as cell growth at 10 uM after 48 hrs by SRB assay relative to control; type: functional; settings: read-out: Activity
SF-295 = assay: Cytotoxicity against human SF295 cells assessed as cell growth at 10 uM after 48 hrs by SRB assay relative to control; type: functional; settings: SF-295, 48 h, read-out: Activity
SW-620 = assay: Cytotoxicity against human SW620 cells assessed as cell growth at 10 uM after 48 hrs by SRB assay relative to control; type: functional; settings: SW-620, 48 h, read-out: Activity
NCI-H522 = assay: Cytotoxicity against human NCI-H522 cells assessed as cell growth at 10 uM after 48 hrs by SRB assay relative to control; type: functional; settings: NCI-H522, 48 h, read-out: Activity
NCI-H322M = assay: Cytotoxicity against human NCI-H322M cells assessed as cell growth at 10 uM after 48 hrs by SRB assay relative to control; type: functional; settings: read-out: Activity
NCI-H460 = assay: Cytotoxicity against human NCI-H460 cells assessed as cell growth at 10 uM after 48 hrs by SRB assay relative to control; type: functional; settings: NCI-H460, 48 h, read-out: Activity
NCI-H23 = assay: Cytotoxicity against human NCI-H23 cells assessed as cell growth at 10 uM after 48 hrs by SRB assay relative to control; type: functional; settings: NCI-H23, 48 h, read-out: Activity
NCI-H226 = assay: Cytotoxicity against human NCI-H226 cells assessed as cell growth at 10 uM after 48 hrs by SRB assay relative to control; type: functional; settings: NCI-H226, 48 h, read-out: Activity
[5] = Cytotoxicity against human EKVX cells assessed as cell growth at 10 uM after 48 hrs by SRB assay relative to control; type: functional; settings: read-out: Activity
MOLT-4 = assay: Cytotoxicity against human MOLT4 cells assessed as cell growth at 10 uM after 48 hrs by SRB assay relative to control; type: functional; settings: MOLT-4, 48 h, read-out: Activity
MDA-MB-231 [6] = assay: Growth inhibition of human MDA-MB-231 cells after 72 hrs by MTT assay; type: functional, cell-based; settings: MDA-MB-231, 72 h
MDA-MB-231 [7] = assay: Antimigratory activity against human MDA-MB-231 cells after 24 hrs by wound-healing assay; type: functional, cell-based; settings: MDA-MB-231, 24 h
HOP-92 = assay: Cytotoxicity against human HOP92 cells assessed as cell growth at 10 uM after 48 hrs by SRB assay relative to control; type: functional; settings: HOP-92, 48 h, read-out: Activity

SMILES | growth at 10 µM (MDA-MB-468) [%] | growth at 10 µM (MDA-MB-231 [1]) [%] | growth at 10 µM (MCF7) [%] | growth at 10 µM [2] [%] | growth at 10 µM (CAKI-1) [%] | growth at 10 µM [3] [%] | growth at 10 µM [4] [%] | growth at 10 µM (SK-MEL-28) [%] | growth at 10 µM (MDA-MB-435) [%] | growth at 10 µM (M14) [%] | growth at 10 µM (LOX IMVI) [%] | growth at 10 µM (SF-295) [%] | growth at 10 µM (SW-620) [%] | growth at 10 µM (NCI-H522) [%] | growth at 10 µM (NCI-H322M) [%] | growth at 10 µM (NCI-H460) [%] | growth at 10 µM (NCI-H23) [%] | growth at 10 µM (NCI-H226) [%] | growth at 10 µM [5] [%] | growth at 10 µM (MOLT-4) [%] | other results
CC(C)=CCC[C@H](C)c1ccc(C)c(CNCCCCCO)c1O | 79.8 | 96.5 | 79.4 | 54.9 | 75.2 | 72.9 | 94.2 | 112 | 95 | 94.3 | 83.1 | 108 | 91.9 | 89.2 | 104 | 94.5 | 92.5 | 99.6 | 90.5 | 83.1 | growth at 10 µM (BT-549): 108%; growth at 10 µM (SR): 84%; growth at 10 µM (DU-145): 108%; growth at 10 µM (SF-268): 87.8%; growth at 10 µM (Malme-3M): 106%; IC50 (MDA-MB-231 [6]): 10.7 µM; IC50 (MDA-MB-231 [7]): > 20 µM
COc1ccc(CCNCc2c(C)ccc([C@@H](C)CCC=C(C)C)c2O)cc1OC | 67.9 | 87.7 | 85.1 | 42.6 | 58.4 | 71 | 84.9 | 104 | 97.8 | 91 | 73.7 | 87.9 | 84.9 | 75 | 99 | 83.1 | 74 | 78.3 | 82.3 | 68.2 | growth at 10 µM (SR): 53.4%; growth at 10 µM (DU-145): 83.4%; growth at 10 µM (SF-268): 90.7%; IC50 (MDA-MB-231 [6]): > 50 µM; IC50 (MDA-MB-231 [7]): > 20 µM
CC(C)=CCC[C@H](C)c1ccc(C)c2c1OCN(CCO)C2 | 82.5 | 88.8 | 83.9 | 42.4 | 91.6 | 79 | 96.1 | 111 | 101 | 90.9 | 100 | 98.6 | 100 | 78.1 | 104 | 96 | 81.7 | 91.2 | 97.2 | 101 | growth at 10 µM (BT-549): 95.8%; growth at 10 µM (Malme-3M): 89.5%; growth at 10 µM (HOP-92): 4.21%; IC50 (MDA-MB-231 [6]): 20.3 µM; IC50 (MDA-MB-231 [7]): 11.1 µM
CC(C)=CCC[C@H](C)c1ccc(C)c(CNCCCCC(=O)O)c1O | 100 | 97.6 | 101 | 81.9 | 90.6 | 93.3 | 92.3 | 109 | 96.1 | 113 | 95 | 101 | 98.3 | 95.4 | 111 | 105 | 98.8 | 91.1 | 97.9 | 95.1 | growth at 10 µM (BT-549): 111%; growth at 10 µM (SR): 85%; growth at 10 µM (DU-145): 110%; growth at 10 µM (SF-268): 105%; IC50 (MDA-MB-231 [6]): > 50 µM; IC50 (MDA-MB-231 [7]): > 20 µM
CC(C)=CCC[C@H](C)c1ccc(C)c(CNCCO)c1O | 81.7 | 86.1 | 105 | 54.7 | 74.6 | 108 | 92.7 | 112 | 95.8 | 101 | 88.7 | 105 | 100 | 81.4 | 100 | 102 | 89.1 | 90 | 89 | 87.5 | growth at 10 µM (SR): 75.7%; growth at 10 µM (DU-145): 98.3%; growth at 10 µM (SF-268): 97.8%; IC50 (MDA-MB-231 [6]): 14.4 µM; IC50 (MDA-MB-231 [7]): > 20 µM
CC(C)=CCC[C@H](C)c1ccc(C)c2c1OCN(CCCCC(=O)O)C2 | 87 | 91.8 | 92.5 | 69.7 | 81 | 105 | 79.7 | 115 | 99.4 | 92.5 | 90.2 | 102 | 101 | 44.8 | 112 | 105 | 95.1 | 95.7 | 102 | 102 | growth at 10 µM (SR): 105%; growth at 10 µM (DU-145): 118%; growth at 10 µM (SF-268): 100%; growth at 10 µM (Malme-3M): 126%; growth at 10 µM (HOP-92): 83.7%; IC50 (MDA-MB-231 [6]): > 50 µM; IC50 (MDA-MB-231 [7]): 29.9 µM
